# Experimental data reported in ChEMBL document CHEMBL1134487, “Design, synthesis, and biological evaluation of analogues of the antitumor agent, 2-(4-[(7-chloro-2-quinoxalinyl)oxy]phenoxy)propionic acid (XK469)” (2001).
# The source made the active and inactive calls. The rule behind the calls is not given here.
# Assays:
# Mus musculus [1] = test: In vivo activity tested against C3H mice bearing panc-03 murine tumor measured as % treated/control calculated at 351 mg/kg (po); format: functional
# Mus musculus [2] = test: In vivo activity tested against C3H mice bearing panc-03 murine tumor measured as % treated/control calculated at 287 mg/kg (po); format: functional
# Mus musculus [3] = test: In vivo activity tested against C3H mice bearing panc-03 murine tumor measured as body weight loss at 287 mg/kg (po); format: functional
# Mus musculus [4] = test: In vivo activity tested against C3H mice bearing panc-03 murine tumor measured as log Kill value was based on tumors that grew at 351 mg/kg (po); format: functional, organism-based; set-up: dose 351 mg/kg
# Mus musculus [5] = test: In vivo activity tested against C3H mice bearing panc-03 murine tumor measured as log Kill value was based on tumors that grew at 287 mg/kg (po); format: functional, organism-based; set-up: dose 287 mg/kg
# Mus musculus [6] = test: In vivo activity tested against C3H mice bearing panc-03 murine tumor measured as body weight loss at 351 mg/kg (po); format: functional
# Mus musculus [7] = test: In vivo activity tested against C3H mice bearing panc-03 murine tumor measured as log Kill value was based on tumors that grew at 1530 mg/kg (po); format: functional, organism-based; set-up: dose 1530 mg/kg
# Mus musculus [8] = test: In vivo activity tested against C3H mice bearing panc-03 murine tumor measured as body weight loss at 1530 mg/kg (po); format: functional
# Mus musculus [9] = test: In vivo activity tested against C3H mice bearing panc-03 murine tumor measured as % treated/control calculated at 1530 mg/kg (po); format: functional
# Mus musculus [10] = test: In vivo activity tested against C3H mice bearing panc-03 murine tumor measured as body weight loss at 477 mg/kg (po); format: functional
# Mus musculus [11] = test: In vivo activity tested against C3H mice bearing panc-03 murine tumor; format: functional
# Mus musculus [12] = test: In vivo activity tested against C3H mice bearing panc-03 murine tumor measured as log Kill value was based on tumors that grew at 477 mg/kg (po); kill value was NIL; format: functional, organism-based; set-up: dose 477 mg/kg
# Mus musculus [13] = test: In vivo activity tested against C3H mice bearing panc-03 murine tumor measured as% treated/control calculated at 477 mg/kg (po); format: functional
# Mus musculus [14] = test: In vivo activity tested against C3H mice bearing panc-03 murine tumor measured as body weight loss at 480 mg/kg (po); format: functional
# Mus musculus [15] = test: In vivo activity tested against C3H mice bearing panc-03 murine tumor measured as % treated/control calculated at 480 mg/kg (po); format: functional
# Mus musculus [16] = test: In vivo activity tested against C3H mice bearing panc-03 murine tumor measured as body weight loss at 2300 mg/kg (po); format: functional
# Mus musculus [17] = test: In vivo activity tested against C3H mice bearing panc-03 murine tumor measured as log Kill value was based on tumors that grew at 480 mg/kg (po); format: functional, organism-based; set-up: dose 480 mg/kg
# Mus musculus [18] = test: In vivo activity tested against C3H mice bearing panc-03 murine tumor measured as cures at 2300 mg/kg (po); 1/5 cures; format: functional
# Mus musculus [19] = test: In vivo activity tested against C3H mice bearing panc-03 murine tumor measured as log Kill value was based on tumors that grew at 2300 mg/kg (po); format: functional, organism-based; set-up: dose 2300 mg/kg
# Mus musculus [20] = test: In vivo activity tested against C3H mice bearing panc-03 murine tumor measured as % treated/control calculated at 2300 mg/kg (po); format: functional
# Mus musculus [21] = test: In vivo activity tested against C3H mice bearing colon adenocarcinoma -38(colon-38) tumor measured as body weight loss at 1590 mg/kg (po); format: functional
# Mus musculus [22] = test: In vivo activity tested against C3H mice bearing colon adenocarcinoma -38(colon-38) tumor measured as log Kill value was based on tumors that grew at 1590 mg/kg (po); None; format: functional, organism-based; set-up: dose 1590 mg/kg
# Mus musculus [23] = test: In vivo activity tested against C3H mice bearing colon adenocarcinoma -38(colon-38) tumor measured as activity rating at 1590 mg/kg (po); format: functional
# Mus musculus [24] = test: In vivo activity tested against C3H mice bearing colon adenocarcinoma -38(colon-38) tumor measured as % treated/control calculated at 1590 mg/kg (po); format: functional
# Mus musculus [25] = test: In vivo activity tested against C3H mice bearing panc-03 murine tumor measured as % treated/control calculated at 530 mg/kg (po); format: functional
# Mus musculus [26] = test: In vivo activity tested against C3H mice bearing panc-03 murine tumor measured as log Kill value was based on tumors that grew at 530 mg/kg (po); format: functional, organism-based; set-up: dose 530 mg/kg
# Mus musculus [27] = test: In vivo activity tested against C3H mice bearing panc-03 murine tumor measured as body weight loss at 530 mg/kg (po); format: functional
# Mus musculus [28] = test: In vivo activity tested against C3H mice bearing panc-03 murine tumor measured as log Kill value was based on tumors that grew at 1310 mg/kg (po); format: functional, organism-based; set-up: dose 1310 mg/kg
# Mus musculus [29] = test: In vivo activity tested against C3H mice bearing panc-03 murine tumor measured as body weight loss at 1310 mg/kg (po); format: functional
# Mus musculus [30] = test: In vivo activity tested against C3H mice bearing panc-03 murine tumor measured as % treated/control calculated at 1310 mg/kg (po); format: functional
# Mus musculus [31] = test: In vivo activity tested against C3H mice bearing colon adenocarcinoma -38(colon-38) tumor measured as body weight loss at 753 mg/kg (po); format: functional
# Mus musculus [32] = test: In vivo activity tested against C3H mice bearing colon adenocarcinoma -38(colon-38) tumor measured as log Kill value was based on tumors that grew at 753 mg/kg (po); format: functional, organism-based; set-up: dose 753 mg/kg
# Mus musculus [33] = test: In vivo activity tested against C3H mice bearing colon adenocarcinoma -38(colon-38) tumor measured as activity rating at 466 mg/kg (po); format: functional
# Mus musculus [34] = test: In vivo activity tested against C3H mice bearing colon adenocarcinoma -38(colon-38) tumor measured as body weight loss at 466 mg/kg (po); format: functional
# Mus musculus [35] = test: In vivo activity tested against C3H mice bearing colon adenocarcinoma -38(colon-38) tumor measured as activity rating at 753 mg/kg (po); format: functional
# Mus musculus [36] = test: In vivo activity tested against C3H mice bearing colon adenocarcinoma -38(colon-38) tumor, measured as cures at 466 mg/kg (po); 3/5 cures; format: functional
# Mus musculus [37] = test: In vivo activity tested against C3H mice bearing colon adenocarcinoma -38(colon-38) tumor, measured as cures at 753 mg/kg (po); 2/5 cures; format: functional
# Mus musculus [38] = test: In vivo activity tested against C3H mice bearing colon adenocarcinoma -38(colon-38) tumor measured as log Kill value was based on tumors that grew at 466 mg/kg (po); format: functional, organism-based; set-up: dose 466 mg/kg
# Mus musculus [39] = test: In vivo activity tested against C3H mice bearing colon adenocarcinoma -38(colon-38) tumor measured as % treated/control calculated at 753 mg/kg (po); format: functional
# Mus musculus [40] = test: In vivo activity tested against C3H mice bearing colon adenocarcinoma -38(colon-38) tumor measured as % treated/control calculated at 466 mg/kg (po); format: functional
# Mus musculus [41] = test: In vivo activity tested against C3H mice bearing panc-03 murine tumor measured as % treated/control calculated at 939 mg/kg (po); format: functional
# Mus musculus [42] = test: In vivo activity tested against C3H mice bearing panc-03 murine tumor measured as body weight loss at 939 mg/kg (po); format: functional
# Mus musculus [43] = test: In vivo activity tested against C3H mice bearing panc-03 murine tumor measured as log Kill value was based on tumors that grew at 939 mg/kg (po); format: functional, organism-based; set-up: dose 939 mg/kg
# Mus musculus [44] = test: In vivo activity tested against C3H mice bearing panc-03 murine tumor at a dose of 330mg/kg, measured as % treated/control; format: functional
# Mus musculus [45] = test: In vivo activity tested against C3H mice bearing panc-03 murine tumor at a dose of 330mg/kg, measured as activity rating; format: functional
# Mus musculus [46] = test: In vivo activity tested against C3H mice bearing Mam 17/Adr murine tumor at a dose of 330 mg/kg, measured as activity rating; format: functional
structure (smiles),measurement,setting,value
CC(Oc1ccc(Oc2cnc3cccc(Cl)c3n2)cc1)C(=O)O (stereo unspecified),T/C,Mus musculus [1],74%
same,T/C,Mus musculus [2],69%
same,Body weight loss,Mus musculus [3],-3.9%
same,Log kill,Mus musculus [4],0
same,Log kill,Mus musculus [5],0.1
same,Body weight loss,Mus musculus [6],-4%
CC(Oc1ccc(Oc2cnc3ccc(Cl)cc3n2)cc1)C(=O)N(C)C (stereo unspecified),Log kill,Mus musculus [7],2.2
same,Body weight loss,Mus musculus [8],-3.8%
same,T/C,Mus musculus [9],16%
CC(Oc1ccc(Oc2cnc3ccc(Cl)cc3n2)cc1)C1N=NN=N1 (stereo unspecified),Body weight loss,Mus musculus [10],8.7%
same,Activity rating,Mus musculus [11],<0.7
same,Log kill,Mus musculus [12],kill value was NIL
same,T/C,Mus musculus [13],>100%
CNC(=O)C(C)Oc1ccc(Oc2cnc3ccc(Cl)cc3n2)cc1 (stereo unspecified),Body weight loss,Mus musculus [14],-9.3%
same,T/C,Mus musculus [15],39%
same,Body weight loss,Mus musculus [16],-14.5%
same,Log kill,Mus musculus [17],1.2
same,Cures,Mus musculus [18],1
same,Log kill,Mus musculus [19],4.2
same,T/C,Mus musculus [20],4%
CC(Oc1ccc(Oc2cnc3cc(Cl)ccc3n2)cc1)C(=O)O (stereo unspecified) [QUIZALOFOP],Body weight loss,Mus musculus [21],-4%
same,Log kill,Mus musculus [22],inactive
same,Activity rating,Mus musculus [23],<0.7
same,T/C,Mus musculus [24],>100%
CC(Oc1ccc(Oc2cnc3ccc(I)cc3n2)cc1)C(=O)O (stereo unspecified),T/C,Mus musculus [25],15%
same,Log kill,Mus musculus [26],1.8
same,Body weight loss,Mus musculus [27],0%
CC(Oc1ccc(Oc2cnc3ccc([N+](=O)[O-])cc3n2)cc1)C(=O)O (stereo unspecified),Log kill,Mus musculus [28],0.6
same,Body weight loss,Mus musculus [29],-3.5%
same,T/C,Mus musculus [30],52%
CC(Oc1ccc(Oc2cnc3ccc(Br)cc3n2)cc1)C(=O)O (stereo unspecified),Body weight loss,Mus musculus [31],-12%
same,Log kill,Mus musculus [32],3
same,Activity rating,Mus musculus [33],2.8
same,Body weight loss,Mus musculus [34],-7%
same,Activity rating,Mus musculus [35],>2.8
same,Cures,Mus musculus [36],3
same,Cures,Mus musculus [37],2
same,Log kill,Mus musculus [38],2.1
same,T/C,Mus musculus [39],0%
same,T/C,Mus musculus [40],0%
COc1ccc2ncc(Oc3ccc(OC(C)C(=O)O)cc3)nc2c1Cl (stereo unspecified),T/C,Mus musculus [41],76%
same,Body weight loss,Mus musculus [42],11.1%
same,Log kill,Mus musculus [43],0
CC(Sc1ccc(Oc2cnc3ccc(Cl)cc3n2)cc1)C(=O)O (stereo unspecified),T/C,Mus musculus [44],100%
same,Activity rating,Mus musculus [45],>2.8
same,Activity rating,Mus musculus [46],>2.8
